pIC50: −log10 of the molar value. One block for each compound: values may come before it.
Tests used:
PC12 cells = experiment: Cell viability / proliferation of PC12 cells (Myc independent); type: cell-based
Description: (§1) Proliferation Assay (FIG. 11). PC3 prostate cancer cell line with high Myc level and PC12 pheochromocytoma tumor cell line with non functional Max protein, which is not dependent on Myc-Max complex, were phased from ATCC. Cells were plated in 96 well plate at 1000 cells per well, and Myc inhibitor 361 at various concentrations was added to the cells next day. After 3 days of treatment, fresh medium with 361 were added again, and cell viability was measured by MTS assay at day 5 after the treatment. (See FIG. 11).

MycCap cells = experiment: Cell viability of MycCap cells; type: cell-based
MV411 cells = experiment: AML xenograft model (MV411), combination with Ara-C; type: in vivo, mouse; settings: AML mice xenograft model
Description: Myc inhibitor combination treatment with Ara-C in AML xenograft model (FIG. 17). CB17 SCID mice were inoculated with MV411 cells at the density of 5×10^6 suspended in PBS and matrigel (1:1). The mice were randomized based on tumor volume into 6 different groups after the tumor reached ˜200 to 500 mm^3. The mice were treated either with vehicle, NUO31, NU975 alone or in combination with cytarabine (Ara-C). […] (See FIG. 17).

[1] = system: cMYC wild-type (WT) and cMYC KO line; experiment: Cell viability, cMYC wild-type (WT) versus cMYC KO line; type: cell-based; settings: cMYC WT vs cMYC KO line
Description: Min9 (NUCC-0176234) was also tested in a cell viability assay against a cMYC wild-type (WT) and a cMYC KO line.

MYC/Max binding to DNA = MYC/Max binding to DNA (Homo sapiens, UniProt P01106); experiment: Electrophoretic mobility shift assay (EMSA), MYC/Max binding to DNA
Chain of MYC/Max binding to DNA (P01106 whole entry): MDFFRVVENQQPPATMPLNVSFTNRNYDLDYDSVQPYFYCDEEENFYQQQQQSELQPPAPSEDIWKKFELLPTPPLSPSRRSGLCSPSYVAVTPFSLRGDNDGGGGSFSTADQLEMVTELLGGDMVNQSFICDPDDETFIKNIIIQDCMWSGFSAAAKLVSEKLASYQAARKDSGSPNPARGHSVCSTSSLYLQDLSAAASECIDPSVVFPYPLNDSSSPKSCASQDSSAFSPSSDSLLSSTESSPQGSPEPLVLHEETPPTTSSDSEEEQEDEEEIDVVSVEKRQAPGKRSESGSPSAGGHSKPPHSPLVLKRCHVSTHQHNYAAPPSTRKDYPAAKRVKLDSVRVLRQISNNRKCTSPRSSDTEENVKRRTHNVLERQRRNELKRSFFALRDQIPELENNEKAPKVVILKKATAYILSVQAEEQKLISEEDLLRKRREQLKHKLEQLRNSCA
Description: We also tested our best hit compound Min9 (NUCC-0176234) and newly synthesized analogs for effects of these compounds on MYC/Max binding to DNA in electrophoretic mobility shift assays (EMSAs). (See FIG. 5a and FIG. 5b). We expected the active compounds to impair MYC/Max binding to DNA. Several strucutural analogs of Min9 were tested over multiple doses for inhibiting MYC-DNA binding and we observed a dose-dependent inhibition. (See FIG. 5c).

DNA damage = experiment: rH2AX staining assay for DNA damage; type: cell-based
Description: Min9 (NUCC-0176234) was also tested for its ability to cause DNA damage in an rH2AX staining assay. We would not expect cMYC-targeting agents to produce significant DNA damage. Compounds that act directly against DNA such as doxorubicin do however. […] (See FIG. 6).

[2] = system: MYC transcriptional activity; experiment: MYC E-Box luciferase reporter assay; type: cell-based; settings: MycCap Ebox-luc, 4 hours of treatment
Description: To test the compounds, we evaluated the in silico hits in a MYC E-Box luciferase reporter assay to measure the effects of these compounds (referred to as Min-1 to Min-32) on MYC transcriptional activity. […] (See FIG. 2).
Myc Ebox luciferase reporter assay (FIG. 12). MycCap cells stably expressing luciferase with CMV promoter (MycCap-luc) or c-Myc E-box-luciferase reporter (MycCap Ebox-luc) were plated at 10000 cells per well in 96 well white-wall plate. Serial dilutions of 361 were treated next day. At 4 hours of treatment, luminescence signal was determined immediately after adding 150 μg/ml of Luciferin to the well. (See FIG. 12).

MycCap tumor [3] = experiment: MycCap FVB allograft model, combination with anti-PD-1 immunotherapy; type: in vivo, mouse; settings: combination with Immunotherapy (anti-PD-1 antibody)
Description: Myc inhibitor 361 combination with Immunotherapy (FIG. 16). MycCap FVB allograft model was treated with 361 (50 mg/kg) for two days, following by two days of anti-PD-1 antibody (100 ug/day), and kept this 4-day treatment cycle for 4 cycles. (See FIG. 16).

[4] = system: PC3 prostate cancer cell line; experiment: Proliferation assay (MTS), PC3 prostate cancer cell line; type: cell-based; settings: day 5
Description: as §1

MycCap tumor [5] = experiment: MycCap FVB allograft model; type: in vivo; settings: mouse prostate cancer allograft model, intra-peritoneally
Description: MycCap FVB allograft model (FIG. 15). FVB mice were inoculated with 1×10^6 of MycCap cells in 100 ul of matrigel subcutaneously on both flanks of the mice. When tumor size reached average size of 150 mm^3, mice were randomized based on tumor volume to 2 groups. Mice were administered with 50 mg/kg of 361 or vehicle (Veh) twice daily intra-peritoneally for two days. The treatment was suspended for 10 day, and initiated the treatment with a lower dose […] daily for another 9 days. Tumor size was measured twice a week during the experiment. (See FIG. 15).

[6] = In vitro metabolism, mouse S9 fraction; type: in vitro ADME
Description: (§2) In vitro metabolism of NUCC-176242 and NUCC-176248 were tested using mouse liver microsomes and a mouse S9 fraction. (See FIG. 9).

[7] = In vitro metabolism, mouse liver microsomes; type: in vitro ADME; settings: % remaining of compound after 60 min treatment with mouse liver microsomes
Description: as §2

[8] = system: wild type and MYC knockout rat fibroblasts; experiment: Growth inhibition of MYC wild type versus MYC knockout rat fibroblasts; type: cell-based
Text: We tested the top 13 active compounds in the first screen assay. […] More than half of the tested compounds show better growth inhibitory effect on MYC WT compared to MYC KO cells.

Structure (SMILES): CNC(=O)c1cc(-c2ccc(OCc3ccc(Cl)cc3)c(-c3cc(C(F)(F)F)cc(C(F)(F)F)c3)c2O)nn1C [NUCC-0201224]
pIC50 (PC12 cells): 4.94 | pIC50 (MycCap cells): 5.96

Structure (SMILES): CCCCOc1ccc(-c2cc(C(F)(F)F)n[nH]2)c(O)c1-c1cc(C(F)(F)F)cc(C(F)(F)F)c1 [compound 031]
anti-tumor effect with Ara-C (MV411 cells): significant synergic anti-tumor effect

Structure (SMILES): Cn1nc(C(F)(F)F)cc1-c1ccc(OCc2ccc(Cl)cc2)c(-c2ccc(Cl)c(C(F)(F)F)c2)c1O [compound 975]
anti-tumor effect with Ara-C (MV411 cells): significant synergic anti-tumor effect

inhibition of MYC/Max binding to DNA (in words) (MYC/Max binding to DNA): prevent c-MYC/DNA binding
Structure (SMILES): CCc1ccc(Oc2c[nH]nc2-c2ccc(OCc3cnn(-c4ccccc4)c3)cc2O)cc1 [NUCC-0176234]
cell viability, WT line versus KO cells [1]: reduces cell viability much more in the WT line than the KO cells | DNA damage (DNA damage): essentially no DNA damage

Structure (SMILES): Cn1nc(C(F)(F)F)cc1-c1ccc(OCc2ccc(Cl)cc2)c(-c2cc(C(F)(F)F)cc(C(F)(F)F)c2)c1O [compound 361]
c-Myc transcription activity [2]: inhibits c-Myc transcription activity as an early event before affecting cell viability | tumor progression (MycCap tumor [3]): significantly blocks tumor progression | proliferation of Myc dependent cell line PC3 [4]: specifically inhibits proliferation | tumor volume (MycCap tumor [5]): reduces tumor volume

Structure (SMILES): CCc1ccc(Oc2c(-c3ccc(OCc4ccc(Cl)cc4)cc3O)n[nH]c2C(F)(F)F)cc1 [NUCC-0176242]
metabolism by mouse S9 fraction [6]: significantly metabolism by the mouse S9 fraction versus NUCC-176248

MLM % at 60 min [7]: 60.3%
Structure (SMILES): CCOC(=O)c1cc(-c2ccc(OCc3ccc(Cl)cc3)c(-c3cc(C(F)(F)F)cc(C(F)(F)F)c3)c2O)n[nH]1 [NUCC-0200972]

MLM % at 60 min [7]: 80.3%
Structure (SMILES): Cn1nc(C(F)(F)F)cc1-c1ccc(OCc2ccc(Cl)cc2)c(-c2cccc(C#N)c2)c1O [NUCC-0198399]

Structure (SMILES): CCc1ccc(Oc2c(-c3ccc(OCc4ccc(Cl)cc4)cc3O)nn(C)c2C(F)(F)F)cc1 [NUCC-0176248]
selectivity of growth inhibition, MYC WT compared to MYC KO cells [8]: high specificity

MLM % at 60 min [7]: 10.3%
Structure (SMILES): CCCCOc1ccc(-c2cc(C(F)(F)F)n(C)n2)c(O)c1-c1cncc(C(F)(F)F)c1 [NUCC-0201209]

MLM % at 60 min [7]: 87.4%
Structure (SMILES): Oc1cc(OCc2ccc(Cl)cc2)ccc1-c1n[nH]c(C(F)(F)F)c1Oc1ccccc1Cl [NUCC-0196342]

Structure (SMILES): CCc1ccc(Oc2c(-c3ccc(OCc4ccncc4)cc3O)n[nH]c2C(F)(F)F)cc1 [NUCC-0176250]
selectivity of growth inhibition, MYC WT compared to MYC KO cells [8]: great selectivity

MLM % at 60 min [7]: 30.5%
Structure (SMILES): Oc1c(-c2cc(C(F)(F)F)n[nH]2)ccc(OCCN2CCCC2)c1-c1cc(C(F)(F)F)cc(C(F)(F)F)c1 [NUCC-0201032]
